Measured values published in patent EP4219453A1 (Sichuan Kelun-Biotech Biopharmaceutical Co., Ltd., priority 2020, dated 2022).
Where two headings read alike, the source gives them in different places.

Experiments:
[1] = target: T1, CYP3A4 (Homo sapiens, UniProt P08684); assay: CYP enzyme inhibition test, P450-Glo CYP3A4 Screening System; type: in vitro ADME; conditions: Luciferin-IPA 3 µM
T1 construct: purchased Promega
Method: Test Example 5: CYP enzyme (Cytocrome P450) inhibition test
• 1. Test system: • P450-Glo™ CYP1A2 Screening System (Promega); • P450-Glo™ CYP2D6 Screening System (Promega); • P450-Glo™ CYP3A4 Screening System (Promega). • 2. Test instrument: BMG PHERAstar FS Luminescent. • 3. Test method: The test was carried out according to the kit instructions, and the steps were as follows: 3.1. Inhibition of CYP1A2:
Test group: The test compound of different concentration was added to the microplate, Luciferin-IPA (3 µM), K3PO4 (100 mM) and CYP3A4 (2 nM) were added to each well, and pre-incubated at room temperature for 10 min, followed by an addition of the NADPH regeneration system, and reacted at room temperature for 30 min, an equal volume of detection buffer was added at last, and incubated at room temperature for 20 min, and then chemiluminescence detection was performed.
Negative control group: The experimental method was the same as that of the test group, but the test compound was not added.
Blank control group: The experimental method was the same as that of the test group, but the test compound was not added, and CYP3A4 Membrance (2 nM) was used instead of CYP3A4.
The median inhibitory concentration (IC50) or range of the compound was estimated according to the inhibition rate of CYP enzymes at different concentrations: IC50 = X × (1 - percent inhibition rate (%)) / percent inhibition rate (%), wherein X is the test concentration of the compound.

[2] = target: T2, hERG (Homo sapiens, UniProt Q12809); assay: Biochemical hERG inhibition test, Predictor hERG fluorescence polarization kit; type: binding; conditions: hERG cell membrane, competition with Tracer 1 nM, 10 µM and 1 µM test compound, 2 h
T2 construct: purchased ThermoFisher
Method: Test Example 4: Biochemical hERG inhibition test
• 1. Test system: Kit: Predictor™ hERG fluorescence polarization detection kit (ThermoFisher), the kit contained the following components: positive control compound hERG potassium channel blocker E4031; hERG cell membrane; affinity tracer Tracer; and hERG buffer. • 2. Test parameters: hERG concentration: 1×; Tracer concentration: 1 nM; incubation time: 2 h; BMG PHERAstar FSFP. • 3.
Positive control group: 30 µM positive control compound E4031 was used to replace the test compound, and the experimental method was the same as that of the test group.
Blank control group: hERG buffer was used to replace the test compound without the addition of hERG cell membrane, and the experimental method was the same as that of the test group.
According to the data ratio, the percent inhibition rates (%) of the compounds of the present invention to hERG at different concentrations were calculated, and the ranges of the half inhibitory concentration (IC50) of the compounds were determined.

[3] = target: T3, CYP1A2 (Homo sapiens, UniProt P05177); assay: CYP enzyme inhibition test, P450-Glo CYP1A2 Screening System; type: in vitro ADME
T3 construct: purchased Promega
T3 sequence (P05177 1-516): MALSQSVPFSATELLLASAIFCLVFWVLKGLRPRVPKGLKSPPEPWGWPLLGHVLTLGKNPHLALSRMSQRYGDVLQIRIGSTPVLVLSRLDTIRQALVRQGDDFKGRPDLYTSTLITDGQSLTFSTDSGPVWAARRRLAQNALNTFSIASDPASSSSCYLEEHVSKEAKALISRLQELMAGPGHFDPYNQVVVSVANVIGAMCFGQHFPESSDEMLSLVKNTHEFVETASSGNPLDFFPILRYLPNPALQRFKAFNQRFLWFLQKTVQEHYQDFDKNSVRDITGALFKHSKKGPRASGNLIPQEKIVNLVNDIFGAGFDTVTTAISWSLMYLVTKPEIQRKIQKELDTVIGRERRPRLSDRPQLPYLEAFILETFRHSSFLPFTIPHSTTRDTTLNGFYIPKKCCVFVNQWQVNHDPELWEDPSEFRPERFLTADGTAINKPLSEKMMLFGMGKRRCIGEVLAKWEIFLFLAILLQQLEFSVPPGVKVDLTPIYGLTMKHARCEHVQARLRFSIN
Method: Test Example 5: CYP enzyme (Cytocrome P450) inhibition test […] Test system: • P450-Glo™ CYP1A2 Screening System (Promega); • P450-Glo™ CYP2D6 Screening System (Promega); • P450-Glo™ CYP3A4 Screening System (Promega). • 2. Test instrument: BMG PHERAstar FS Luminescent. • 3. Test method: The test was carried out according to the kit instructions, and the steps were as follows: 3.1. Inhibition of CYP1A2: Test group: […] Negative control group: The experimental method was the same as that of the test group, but the test compound was not added. Blank control group: […] The median inhibitory concentration (IC50) or range of the compound was estimated according to the inhibition rate of CYP enzymes at different concentrations: […]

[4] = target: TGFβR2 (Homo sapiens, UniProt P37173); assay: In vitro enzymatic activity inhibition test (TGFβR2), ADP-Glo Kinase Detection Kit; type: biochemical; conditions: MBP substrate, calculated from percent inhibition at 1000nM, 100nM, 10nM
Method: Test Example 2: In vitro enzymatic activity inhibition test (TGFβR2).
Experimental method: According to the instructions of ADP-Glo™ Kinase Detection Kit (Promega), the inhibitory effect of the compounds of the present invention on the enzymatic activity of TGFβR2 was determined, and the steps were as follows: TGFβR2 enzyme were pre-incubated with different concentrations of test compounds (1000nM, 100nM, 10nM) at 30°C for 30 min, myelin basic protein (MBP) and adenosine triphosphate (ATP) were added to initiate the reaction. The incubation was performed at 30°C for 3 h, followed by an addition of ADP-Glo™ reagent and incubated at room temperature for 90 min, kinase detection reagent was then added. The chemiluminescence signal values were detected after incubation at room temperature for another 30 min.
When the percent inhibition was between 30% and 80%, the median inhibitory concentration (IC50) or range of the compound was calculated according to the following formula: IC50 = X × (1 - percent inhibition rate (%)) / percent inhibition rate (%), wherein X is the concentration of the compound at which the inhibition rate is between 30% and 80%.

[5] = Luciferin-ME 100 µM, read-out: IC50 (µM) CYP1A2

TGFβR2, sequence (P37173 23-567): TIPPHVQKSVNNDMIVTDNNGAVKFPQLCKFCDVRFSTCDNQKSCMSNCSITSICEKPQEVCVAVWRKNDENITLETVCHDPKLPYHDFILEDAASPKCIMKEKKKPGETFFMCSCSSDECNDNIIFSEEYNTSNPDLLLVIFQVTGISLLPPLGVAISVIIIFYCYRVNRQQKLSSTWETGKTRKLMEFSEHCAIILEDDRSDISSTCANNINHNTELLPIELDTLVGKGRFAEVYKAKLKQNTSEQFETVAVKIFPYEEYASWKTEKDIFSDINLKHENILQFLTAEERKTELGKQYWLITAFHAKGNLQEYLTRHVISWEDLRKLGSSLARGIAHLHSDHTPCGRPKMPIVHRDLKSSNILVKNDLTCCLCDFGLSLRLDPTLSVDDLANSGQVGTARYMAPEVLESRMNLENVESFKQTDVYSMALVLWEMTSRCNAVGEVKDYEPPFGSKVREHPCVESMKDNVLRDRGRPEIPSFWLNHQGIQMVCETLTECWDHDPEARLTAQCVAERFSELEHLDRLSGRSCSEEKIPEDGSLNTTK
T1 sequence (P08684 whole entry): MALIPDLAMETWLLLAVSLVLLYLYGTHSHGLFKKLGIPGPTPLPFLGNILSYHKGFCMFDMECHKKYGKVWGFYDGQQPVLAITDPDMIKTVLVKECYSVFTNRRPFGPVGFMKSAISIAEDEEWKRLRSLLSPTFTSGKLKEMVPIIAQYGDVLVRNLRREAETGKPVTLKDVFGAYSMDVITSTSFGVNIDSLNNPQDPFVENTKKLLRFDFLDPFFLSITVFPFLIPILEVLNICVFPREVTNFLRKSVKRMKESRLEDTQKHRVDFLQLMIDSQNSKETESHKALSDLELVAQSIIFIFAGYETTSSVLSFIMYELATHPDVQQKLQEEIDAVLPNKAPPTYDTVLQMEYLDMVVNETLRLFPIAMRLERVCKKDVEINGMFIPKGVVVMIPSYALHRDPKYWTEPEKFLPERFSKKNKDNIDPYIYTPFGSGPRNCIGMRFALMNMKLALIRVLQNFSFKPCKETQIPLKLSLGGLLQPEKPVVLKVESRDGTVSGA
T2 sequence (Q12809 whole entry): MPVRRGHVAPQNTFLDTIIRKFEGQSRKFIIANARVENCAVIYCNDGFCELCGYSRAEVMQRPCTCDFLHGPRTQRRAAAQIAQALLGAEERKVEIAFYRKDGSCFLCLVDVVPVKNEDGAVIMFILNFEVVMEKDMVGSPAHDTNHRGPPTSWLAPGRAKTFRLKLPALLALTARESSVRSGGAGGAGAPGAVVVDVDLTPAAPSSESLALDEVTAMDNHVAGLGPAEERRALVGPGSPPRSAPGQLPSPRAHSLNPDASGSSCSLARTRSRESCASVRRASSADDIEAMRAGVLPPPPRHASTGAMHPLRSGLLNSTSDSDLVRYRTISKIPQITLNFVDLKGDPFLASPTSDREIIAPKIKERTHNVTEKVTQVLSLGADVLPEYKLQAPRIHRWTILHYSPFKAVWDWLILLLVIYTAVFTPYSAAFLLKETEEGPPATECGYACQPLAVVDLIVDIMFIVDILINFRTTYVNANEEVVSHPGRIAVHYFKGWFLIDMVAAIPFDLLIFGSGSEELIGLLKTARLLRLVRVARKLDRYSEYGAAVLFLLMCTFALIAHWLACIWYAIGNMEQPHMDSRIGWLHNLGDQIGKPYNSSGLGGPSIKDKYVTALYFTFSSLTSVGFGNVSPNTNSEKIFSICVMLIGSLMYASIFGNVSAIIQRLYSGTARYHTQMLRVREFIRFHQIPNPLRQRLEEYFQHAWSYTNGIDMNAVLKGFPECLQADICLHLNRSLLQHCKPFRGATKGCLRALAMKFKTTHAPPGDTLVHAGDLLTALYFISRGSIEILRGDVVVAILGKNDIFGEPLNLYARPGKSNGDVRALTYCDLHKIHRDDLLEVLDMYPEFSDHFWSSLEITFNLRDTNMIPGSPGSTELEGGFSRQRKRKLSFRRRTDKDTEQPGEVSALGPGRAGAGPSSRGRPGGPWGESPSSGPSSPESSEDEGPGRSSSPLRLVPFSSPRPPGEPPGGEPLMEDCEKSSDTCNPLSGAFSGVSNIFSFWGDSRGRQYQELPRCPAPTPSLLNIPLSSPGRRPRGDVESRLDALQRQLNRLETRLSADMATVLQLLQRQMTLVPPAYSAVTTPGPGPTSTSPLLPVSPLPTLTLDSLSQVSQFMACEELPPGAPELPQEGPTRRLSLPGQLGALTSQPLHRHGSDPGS

Structure (SMILES) | IC50 [1] | IC50 [2] | IC50 [3] | IC50 ([1]; 30 min) | IC50 ([3]; Luciferin-ME 100 µM, 30 min, read-out: IC50 (µM) CYP1A2) | IC50 [4] | IC50 [3, 5]
Cc1cccc(-n2nc3c(c2-c2ccn4nccc4c2)CCC3)n1 [Example 4, 5-[2-(6-methylpyridin-2-yl)-2,4,5,6-tetrahydrocyclopenteno [c]pyrazol-3-yl]pyrazolo[1,5-a]pyridine] | > 10 µM | > 10 µM | > 10 µM | – | – | – | –
Cc1cccc(-n2nc3c(c2-c2ccn4ncc(C(N)=O)c4c2)CCC3)n1 [Example 6, 5-[2-(6-methylpyridin-2-yl)-2,4,5,6-tetrahydrocyclopenteno[c]pyrazol-3-yl]pyrazolo[1,5-a]pyridine-3-carboxamide] | – | > 10 µM | – | > 10 µM | > 10 µM | – | –
CNc1cc(-c2ccn3ncc(C(N)=O)c3c2)n(-c2cccc(C)n2)n1 [Example 8, 5-(3-(methylamino)-1-(6-methylpyridin-2-yl)-1H-pyrazol-5-yl)pyrazolo[1,5-a]pyridine-3-carboxamide] | > 10 µM | > 10 µM | – | – | – | > 1000 nM | > 10 µM
Cc1cccc(-n2nc(NC(C)c3ccc(F)cc3)cc2-c2ccn3ncc(C(N)=O)c3c2)n1 (stereo not shown) [Example 10, 5-(3-(1-(4-fluorophenyl)ethylamino)-1-(6-methylpyridin-2-yl)-1H-pyrazol-5-yl)pyridino[1,5-a]pyridine-3-carboxamide] | > 10 µM | > 10 µM | > 10 µM | – | – | > 1000 nM | –
Cc1cccc(-n2nc(NCc3ccc(F)cc3)cc2-c2ccn3ncc(C(N)=O)c3c2)n1 [Example 11, 5-(3-(4-fluorobenzylamino)-1-(6-methylpyridin-2-yl)-1H-pyrazol-5-yl)pyrazolo[1,5-a]pyridine-3-carboxamide] | > 10 µM | > 10 µM | – | – | – | 593 ± 129 nM | > 10 µM
Cc1cccc(-n2nccc2-c2ccn3ncc(C(N)=O)c3c2)n1 [Example 12, 5-(1-(6-methylpyridin-2-yl)-1H-pyrazol-5-yl)pyrazolo[1,5-a]pyridine-3-carboxamide] | > 10 µM | > 10 µM | – | – | – | > 1000 nM | > 10 µM
